Measurements reported in patent US20100167397A1, “ENDOCRINE CELL LINES AND METHOD OF USING THE SAME” (KYOWA HAKKO KOGYO CO., LTD., priority 2002, published 2010).
One block for each molecule: values may come before it.

Experiments:
sulfonylurea receptor [1] = molecular target: T1, sulfonylurea receptor (Rattus norvegicus, UniProt Q09429); assay: Intracellular Ca2+ rise on sulfonylurea in single clones derived from Langerhans islets (Fura-2AM); type: cell-based; conditions: single clones M-6, M-9, M-15, M-19, M-20, M-33, M-43, F-1 and F-9; 0.5 mmol/L
T1 construct: endogenous in cells; host or cells: rat islet-derived clones M-6, M-9, M-15, M-19, M-20, M-33, M-43, F-1, F-9
T1 sequence (Q09429 whole entry): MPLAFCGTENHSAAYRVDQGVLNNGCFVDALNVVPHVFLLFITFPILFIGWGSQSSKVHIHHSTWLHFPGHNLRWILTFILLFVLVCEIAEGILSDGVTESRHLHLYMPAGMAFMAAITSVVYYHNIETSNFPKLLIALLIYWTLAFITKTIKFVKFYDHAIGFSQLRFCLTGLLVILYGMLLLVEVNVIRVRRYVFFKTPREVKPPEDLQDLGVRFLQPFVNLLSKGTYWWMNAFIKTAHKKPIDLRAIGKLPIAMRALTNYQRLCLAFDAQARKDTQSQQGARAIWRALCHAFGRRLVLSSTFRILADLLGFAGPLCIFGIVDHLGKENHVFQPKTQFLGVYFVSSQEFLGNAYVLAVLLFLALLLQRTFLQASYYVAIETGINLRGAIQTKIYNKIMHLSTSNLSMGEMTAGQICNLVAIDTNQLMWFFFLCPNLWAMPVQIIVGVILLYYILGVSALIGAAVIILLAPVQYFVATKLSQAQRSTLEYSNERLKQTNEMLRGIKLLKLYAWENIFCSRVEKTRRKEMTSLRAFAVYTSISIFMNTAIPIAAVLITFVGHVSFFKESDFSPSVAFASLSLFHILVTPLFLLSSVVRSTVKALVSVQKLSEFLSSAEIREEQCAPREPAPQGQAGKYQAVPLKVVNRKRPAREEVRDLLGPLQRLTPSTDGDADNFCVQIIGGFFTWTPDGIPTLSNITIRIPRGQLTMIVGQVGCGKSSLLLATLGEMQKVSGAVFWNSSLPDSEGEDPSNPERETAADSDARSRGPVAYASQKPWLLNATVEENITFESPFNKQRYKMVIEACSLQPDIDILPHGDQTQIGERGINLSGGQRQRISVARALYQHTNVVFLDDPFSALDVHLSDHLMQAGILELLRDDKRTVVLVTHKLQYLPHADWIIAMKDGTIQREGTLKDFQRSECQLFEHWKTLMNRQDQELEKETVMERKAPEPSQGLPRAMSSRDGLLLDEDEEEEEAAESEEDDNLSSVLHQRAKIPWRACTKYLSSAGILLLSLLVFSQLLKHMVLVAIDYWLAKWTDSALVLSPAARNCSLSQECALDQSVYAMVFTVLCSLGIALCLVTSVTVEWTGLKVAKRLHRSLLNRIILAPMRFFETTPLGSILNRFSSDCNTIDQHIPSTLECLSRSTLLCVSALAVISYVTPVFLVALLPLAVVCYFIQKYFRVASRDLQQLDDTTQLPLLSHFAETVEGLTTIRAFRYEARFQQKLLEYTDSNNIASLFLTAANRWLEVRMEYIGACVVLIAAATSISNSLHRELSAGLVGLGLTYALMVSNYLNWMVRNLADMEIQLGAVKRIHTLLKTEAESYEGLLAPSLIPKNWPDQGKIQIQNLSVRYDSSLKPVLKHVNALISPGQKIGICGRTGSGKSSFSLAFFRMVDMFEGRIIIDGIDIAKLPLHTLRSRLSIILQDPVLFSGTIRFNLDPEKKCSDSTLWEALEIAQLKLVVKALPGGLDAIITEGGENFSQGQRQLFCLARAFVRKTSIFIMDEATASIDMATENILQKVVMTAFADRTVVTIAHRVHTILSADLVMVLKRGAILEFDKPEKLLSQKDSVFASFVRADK
T1 sequence (P70673 whole entry partner): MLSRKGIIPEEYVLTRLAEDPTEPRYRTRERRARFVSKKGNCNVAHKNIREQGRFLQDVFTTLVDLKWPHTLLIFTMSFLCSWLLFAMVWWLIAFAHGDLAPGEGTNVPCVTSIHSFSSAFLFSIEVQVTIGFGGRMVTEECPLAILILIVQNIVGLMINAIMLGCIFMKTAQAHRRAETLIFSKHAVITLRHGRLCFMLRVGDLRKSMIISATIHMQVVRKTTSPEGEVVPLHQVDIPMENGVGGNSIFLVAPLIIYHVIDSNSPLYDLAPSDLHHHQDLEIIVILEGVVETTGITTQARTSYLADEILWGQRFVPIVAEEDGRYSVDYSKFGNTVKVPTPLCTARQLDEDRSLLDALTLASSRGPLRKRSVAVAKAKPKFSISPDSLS
Method: About 5×10^6 cells of single clones (M-6, M-9, M-15, M-19, M-20, M-33, M-43, F-1 and F-9) of immortalized cell lines mentioned in Example 11 obtained using an RPMI 1640 (05918) medium were plated on a 60-mm dish and cultured at 33° C. for 2 days using an RPMI 1640 (05918) medium.
After the cultivation, it was washed with an HBSS buffer (manufactured by Gibco) for two times and the cells were floated. Sulfonylurea (Tolbutamide, manufactured by Alexis) was added to about 1×10^6 of the cells so as to make the final concentration 0.5 mmol/L whereupon an increase in Ca^2+ concentration in the cells was checked. Measurement of the Ca^2+ concentration in the cells was carried out using a CAF-100 instrument (manufactured by Nippon Bunko).

sulfonylurea receptor [2] = assay: Intracellular Ca2+ rise on sulfonylurea in immortalized cell lines derived from hypothalamus (Fura-2AM, CAF-110); type: cell-based, rat; conditions: 0.5 mmol/L
Method: The immortalized cell lines (a mixture) derived from hypothalamus of female adult rat obtained in Example 3 were cultured by the method mentioned in Example 1. […] The resulting cells were washed with an HBSS buffer (manufactured by Gibco) twice and the cells were floated. Sulfonylurea (Tolbutamide; manufactured by Alexis) was added to about 1×10^6 cell to make its final concentration 0.5 mmol/L and a rise in Ca^2+ concentration in the cells was checked. Measurement of the Ca^2+ concentration in the cells was conducted using a CAF-110 instrument (manufactured by Nippon Bunko).
As same as in the above (1), reactivity of an immortalized cell line (single clone AMN2-25) derived from hypothalamus of male adult rat obtained in Example 3 with sulfonylurea was tested.

CRE reporter in GBCC13 = assay: Constitutive activity of GPCR, Method 2 (GBCC13 host, firefly luciferase); type: cell-based, human; conditions: activity with 17β-estradiol divided by activity without, control plasmid about 1
Method: After the incubation, Steady Glo Luciferase Assay System (manufactured by Promega) was added and firefly luciferase activity was measured. For the measurement of activity, Auto Lumat LB953 (manufactured by Berthold) or Top Count (Packard) was used. […] It is judged that the higher the induction ratio of the cells to which a GPCR expression plasmid was transfected, the stronger the constitutive activity of the GPCR.

CRE reporter in GBC7 = assay: Constitutive activity of GPCR, Method 4 (GBC7 host, firefly luciferase); type: cell-based, human; conditions: activity with 17β-estradiol divided by activity without, control plasmid about 1
Method: This is a measuring method for constitutive activity of GPCR which is the same as Method 2 except that GBC7 was used as a host and no puromycin was added in the incubation of the transformants.
(§1) In each method, the induction ratio of the cells transfected with the control plasmid was about 1. It is judged that the higher the induction ratio of the cells to which a GPCR expression plasmid was transfected, the stronger the constitutive activity of the GPCR.

leptin receptor (Ob-Rb) [3] = molecular target: T2, leptin receptor (Ob-Rb) (Rattus norvegicus, UniProt Q62959); assay: Leptin reactivity: immunostaining using an anti-STAT antibody (STAT3 transfer from cytoplasm to nucleus); type: cell-based; conditions: NC-6, NC-12 and AMN2-25; 100 nmol/L human leptin, 37° C., 15 minutes; without leptin cytoplasm was stained
T2 construct: endogenous in cells; host or cells: rat hypothalamus-derived immortalized lines NC-6, NC-12, AMN2-25
T2 sequence (Q62959 22-1162): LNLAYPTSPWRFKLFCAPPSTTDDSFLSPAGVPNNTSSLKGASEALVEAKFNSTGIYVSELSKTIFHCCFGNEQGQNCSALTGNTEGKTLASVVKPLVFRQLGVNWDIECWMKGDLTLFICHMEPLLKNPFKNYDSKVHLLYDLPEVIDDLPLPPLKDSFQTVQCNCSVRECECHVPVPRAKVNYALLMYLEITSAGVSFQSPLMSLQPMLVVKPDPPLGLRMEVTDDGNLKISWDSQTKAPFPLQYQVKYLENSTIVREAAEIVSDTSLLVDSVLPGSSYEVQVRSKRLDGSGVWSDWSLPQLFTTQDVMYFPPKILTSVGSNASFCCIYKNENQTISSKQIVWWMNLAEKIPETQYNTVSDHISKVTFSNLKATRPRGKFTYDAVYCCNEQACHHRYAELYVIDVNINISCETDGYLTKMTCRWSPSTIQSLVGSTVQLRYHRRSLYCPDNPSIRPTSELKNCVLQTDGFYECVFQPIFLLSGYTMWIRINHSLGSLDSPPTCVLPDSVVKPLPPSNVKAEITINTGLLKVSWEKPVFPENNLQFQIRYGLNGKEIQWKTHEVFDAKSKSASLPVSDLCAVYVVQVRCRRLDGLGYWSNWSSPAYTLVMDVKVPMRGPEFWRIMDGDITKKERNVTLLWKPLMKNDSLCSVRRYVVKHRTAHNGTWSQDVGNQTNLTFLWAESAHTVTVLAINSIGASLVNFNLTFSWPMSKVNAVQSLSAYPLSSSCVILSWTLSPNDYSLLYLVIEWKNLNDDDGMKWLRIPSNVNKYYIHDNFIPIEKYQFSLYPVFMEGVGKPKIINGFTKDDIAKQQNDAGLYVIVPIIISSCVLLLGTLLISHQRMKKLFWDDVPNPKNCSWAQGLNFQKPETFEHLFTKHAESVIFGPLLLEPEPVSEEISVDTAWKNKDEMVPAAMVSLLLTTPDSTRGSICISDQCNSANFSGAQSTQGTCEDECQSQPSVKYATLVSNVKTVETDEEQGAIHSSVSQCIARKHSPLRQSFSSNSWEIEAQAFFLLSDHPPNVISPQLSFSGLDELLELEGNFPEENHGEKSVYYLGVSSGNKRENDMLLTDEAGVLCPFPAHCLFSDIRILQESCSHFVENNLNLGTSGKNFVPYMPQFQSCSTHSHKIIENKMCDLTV
Method: In a cell line where expression of a leptin receptor (Ob-Rb) protein is confirmed by the method mentioned in Example 7, it was analyzed by the following method whether a functional Ob-Rb is expressed. The following method is a method where the fact that a transcription factor STAT3 is phosphorylated upon stimulation by leptin and is transferred from cytoplasm to nucleus is utilized.
NC-6, NC-12 and AMN2-25 expressing leptin receptor (Ob-Rb) protein are cultured according to the method mentioned in Example 1. After the cultivation, about 1×10^3 cells were plated on 8 chambers coated with CELL-TAK and cultured for 3 days where cultivation temperature was shifted from 33° C. to 37° C. […] After the cultivation, exchange to a DMEM/F-12 (-FCS) medium was conducted. After 2 hours from the exchange of the medium, the cells were stimulated with 100 nmol/L of human leptin (manufactured by R&D Systems) at 37° C. for 15 minutes.
After the stimulation, immunostaining was carried out using an anti-STAT antibody (manufactured by NEB) and a cyanine 3-labeled anti-rabbit IgG (secondary antibody) diluted to an extent of 200-fold. The immunostaining was carried out according to the manual of Phospho Plus Stat 3 (Tyr 705) Antibody it (NEB). […] After the staining, drying was conducted, mounting with a discoloration inhibitor solution was done and an observation under a fluorescence microscope was carried out.

leptin receptor (Ob-Rb) [4] = molecular target: T2, leptin receptor (Ob-Rb); assay: Leptin reactivity: change in expression of c-fos gene and SOCS-3 gene by PCR; type: cell-based; conditions: NC-6, NC-12 and AMN2-25; 100 nmol/L human leptin, 0 minute, 30 minutes or 1 hour
Method: Expression of c-fos gene and SOCS-3 gene, which has been known to be increased in hypothalamic cells by leptin stimulation, was analyzed by the following method utilizing a PCR whereby the leptin reactivity of the cell line, which was confirmed to be expressing a functional OB-Rb in the above (1), was confirmed from another view.
NC-6, NC-12 and AMN2-25 were cultured according to the method mentioned in Example 1. After the cultivation, about 2×10^4 cells were plated on a 35-mm dish coated with poly-lysine and cultured out for 5 days by shifting the cultivation temperature from 33° C. to 37° C. […] After the cultivation, exchange to a DMEM/F-12 (-FCS) medium was done.
After 2 hours from the exchange of the medium, 100 nmol/L of human leptin (manufactured by R&D Systems) was added. After incubating at 37° C. for 0 minute, 30 minutes or 1 hour, total RNA was collected from each cell line using an RNeasy Mini Kit (manufactured by Qiagen). Single-stranded cDNA was synthesized from the total RNA according to the method mentioned in Example 6 and a PCR was carried out using the cDNA as a template. With regard to primers specific to c-fos gene, synthetic DNAs having the nucleotide sequences of SEQ ID NOS: 45 and 46 were used while, with regard to primers specific to SOCS-3 gene, synthetic DNAs having the nucleotide sequences of SEQ ID NOS: 47 and 48 were used. […]

CRE reporter in GBCR2 = assay: Constitutive activity of GPCR, Method 3 (GBCR2 host, Renilla reniformis luciferase); type: cell-based, human; conditions: activity with 17β-estradiol divided by activity without, control plasmid about 1
Method: This is a measuring method for constitutive activity of GPCR which is the same as Method 1 except that GBCR2 was used as a host and no puromycin was added in the incubation of the transformants.
as §1

Ca2+ concentration in the cells (sulfonylurea receptor [1]): increased
Molecule: CCCCNC(=O)NS(=O)(=O)c1ccc(C)cc1 [sulfonylurea, Tolbutamide]
rise in Ca2+ concentration in the cells (sulfonylurea receptor [2]; immortalized cell lines (a mixture) from hypothalamus of female adult rat): cell lines which reacted with sulfonylurea were present
Ca2+ concentration in the cell (sulfonylurea receptor [2]; single clone AMN2-25): increased

Constitutive Activity (induction ratio) (CRE reporter in GBCC13): 4.8-fold
Molecule: GPR 25

Constitutive Activity (induction ratio) (CRE reporter in GBC7): 40-fold
Molecule: GPR 52

STAT3 immunostaining upon stimulation with leptin (leptin receptor (Ob-Rb) [3]): the area inside the nucleus was stained
expression of SOCS-3 gene by stimulation with leptin (leptin receptor (Ob-Rb) [4]): increased
expression of c-fos gene by stimulation with leptin (leptin receptor (Ob-Rb) [4]): increased
Molecule: leptin: human leptin (manufactured by R&D Systems)

Constitutive Activity (induction ratio) (CRE reporter in GBCR2): 188-fold
B1: GPR 12 (protein, UniProt P47775 1-334, looked up)
G-protein coupled receptor 12: MNEDLKVNLSGLPRDYLDAAAAENISAAVSSRVPAVEPEPELVVNPWDIVLCTSGTLISCENAIVVLIIFHNPSLRAPMFLLIGSLALADLLAGIGLITNFVFAYLLQSEATKLVTIGLIVASFSASVCSLLAITVDRYLSLYYALTYHSERTVTFTYVMLVMLWGTSICLGLLPVMGWNCLRDESTCSVVRPLTKNNAAILSVSFLFMFALMLQLYIQICKIVMRHAHQIALQHHFLATSHYVTTRKGVSTLAIILGTFAACWMPFTLYSLIADYTYPSIYTYATLLPATYNSIINPVIYAFRNQEIQKALCLICCGCIPSSLAQRARSPSDV
